# Measured values published in PubChem BioAssay (NCI).
#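 A five-concentration, 48-hour dose response in 96-well plates underlies each endpoint, interpolated linearly between surrounding concentrations. GI50 marks 50% less growth. TGI denotes the concentration required for complete inhibition of growth.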
# Experiments:
# Assay in all cases: NCI tumour cell line growth inhibition, 48 h
# [1] = tested on: 786-0 renal
# [2] = tested on: A498 renal
# [3] = tested on: A549 NSCLC
# [4] = tested on: ACHN renal
# [5] = tested on: CAKI-1 renal
# [6] = tested on: CCRF-CEM leukemia
# [7] = tested on: COLO 205 colon
# [8] = tested on: DU-145 prostate
# [9] = tested on: EKVX NSCLC
# [10] = tested on: HCC-2998 colon
# [11] = tested on: HCT-116 colon
# [12] = tested on: HCT-15 colon
# [13] = tested on: HL-60(TB) leukemia
# [14] = tested on: HOP-62 NSCLC
# [15] = tested on: HOP-92 NSCLC
# [16] = tested on: HS 578T breast
# [17] = tested on: HT29 colon
# [18] = tested on: IGROV1 ovarian
# [19] = tested on: K-562 leukemia
# [20] = tested on: KM12 colon
# [21] = tested on: LOX IMVI melanoma
# [22] = tested on: M14 melanoma
# [23] = tested on: MALME-3M melanoma
# [24] = tested on: MCF7 breast
# [25] = tested on: MDA-MB-435
# [26] = tested on: MDA-N
# [27] = tested on: MOLT-4 leukemia
# [28] = tested on: NCI-H23 lung
# [29] = tested on: NCI-H460 lung
# [30] = tested on: NCI-H522 lung
# [31] = tested on: NCI/ADR-RES ovarian
# [32] = tested on: OVCAR-3 ovarian
# [33] = tested on: OVCAR-4 ovarian
# [34] = tested on: OVCAR-5 ovarian
# [35] = tested on: OVCAR-8 ovarian
# [36] = tested on: PC-3 prostate
# [37] = tested on: RPMI-8226 leukemia
# [38] = tested on: RXF 393 renal
# [39] = tested on: SF-268 CNS
# [40] = tested on: SF-295 CNS
# [41] = tested on: SF-539 CNS
# [42] = tested on: SK-MEL-2 melanoma
# [43] = tested on: SK-MEL-28 melanoma
# [44] = tested on: SK-MEL-5 melanoma
# [45] = tested on: SK-OV-3 ovarian
# [46] = tested on: SNB-19 CNS
# [47] = tested on: SNB-75 CNS
# [48] = tested on: SR leukemia
# [49] = tested on: SW-620 colon
# [50] = tested on: T-47D breast
# [51] = tested on: TK-10 renal
# [52] = tested on: U251 CNS
# [53] = tested on: UACC-257 melanoma
# [54] = tested on: UACC-62 melanoma
# [55] = tested on: UO-31 renal
# [56] = tested on: BT-549 breast
# [57] = tested on: MDA-MB-231 breast
# [58] = tested on: NCI-H226 lung
# [59] = tested on: SN12C renal
compound,measurement,setting,value
COc1ccc(C2=C(Cl)C(=O)O/C2=C\c2ccc(OC)c(Br)c2)cc1Cl,TGI,[1],39.1 µM
same,TGI,[2],52.9 µM
same,TGI,[3],> 100 µM
same,TGI,[4],40.2 µM
same,TGI,[5],> 100 µM
same,TGI,[6],79.2 µM
same,TGI,[7],> 100 µM
same,TGI,[8],> 100 µM
same,TGI,[9],90.8 µM
same,TGI,[10],> 100 µM
same,TGI,[11],53.1 µM
same,TGI,[12],> 100 µM
same,TGI,[13],> 100 µM
same,TGI,[14],30.8 µM
same,TGI,[15],49.9 µM
same,TGI,[16],> 100 µM
same,TGI,[17],> 100 µM
same,TGI,[18],> 100 µM
same,TGI,[19],> 100 µM
same,TGI,[20],> 100 µM
same,TGI,[21],> 100 µM
same,TGI,[22],> 100 µM
same,TGI,[23],> 100 µM
same,TGI,[24],46.9 µM
same,TGI,[25],> 100 µM
same,TGI,[26],> 100 µM
same,TGI,[27],> 100 µM
same,TGI,[28],32 µM
same,TGI,[29],> 100 µM
same,TGI,[30],57.5 µM
same,TGI,[31],88.6 µM
same,TGI,[32],47 µM
same,TGI,[33],> 100 µM
same,TGI,[34],> 100 µM
same,TGI,[35],51.8 µM
same,TGI,[36],> 100 µM
same,TGI,[37],> 100 µM
same,TGI,[38],46.3 µM
same,TGI,[39],38 µM
same,TGI,[40],35.1 µM
same,TGI,[41],30.6 µM
same,TGI,[42],60.2 µM
same,TGI,[43],> 100 µM
same,TGI,[44],> 100 µM
same,TGI,[45],> 100 µM
same,TGI,[46],80.6 µM
same,TGI,[47],> 100 µM
same,TGI,[48],> 100 µM
same,TGI,[49],> 100 µM
same,TGI,[50],> 100 µM
same,TGI,[51],38.3 µM
same,TGI,[52],36.6 µM
same,TGI,[53],> 100 µM
same,TGI,[54],74.9 µM
same,TGI,[55],> 100 µM
CC[N+]1(C)CCC(O)(c2ccc(C)cc2)C(C(=O)c2ccc(C)cc2)C1 (centres undefined),TGI,[1],34.6 µM
same,TGI,[2],> 100 µM
same,TGI,[3],> 100 µM
same,TGI,[4],48 µM
same,TGI,[56],> 100 µM
same,TGI,[5],61.4 µM
same,TGI,[6],44.2 µM
same,TGI,[7],55.7 µM
same,TGI,[8],> 100 µM
same,TGI,[9],> 100 µM
same,TGI,[10],> 100 µM
same,TGI,[11],> 100 µM
same,TGI,[12],45.9 µM
same,TGI,[13],> 100 µM
same,TGI,[14],> 100 µM
same,TGI,[15],46.2 µM
same,TGI,[16],> 100 µM
same,TGI,[17],> 100 µM
same,TGI,[18],> 100 µM
same,TGI,[19],37.5 µM
same,TGI,[20],> 100 µM
same,TGI,[22],> 100 µM
same,TGI,[23],52.7 µM
same,TGI,[24],36.9 µM
same,TGI,[57],62.3 µM
same,TGI,[25],> 100 µM
same,TGI,[26],> 100 µM
same,TGI,[27],48.1 µM
same,TGI,[58],> 100 µM
same,TGI,[28],> 100 µM
same,TGI,[29],> 100 µM
same,TGI,[30],41.7 µM
same,TGI,[31],> 100 µM
same,TGI,[32],39.6 µM
same,TGI,[33],86.3 µM
same,TGI,[34],> 100 µM
same,TGI,[35],> 100 µM
same,TGI,[36],> 100 µM
same,TGI,[37],37.3 µM
same,TGI,[38],84.9 µM
same,TGI,[39],> 100 µM
same,TGI,[40],> 100 µM
same,TGI,[41],> 100 µM
same,TGI,[42],> 100 µM
same,TGI,[44],> 100 µM
same,TGI,[45],> 100 µM
same,TGI,[59],> 100 µM
same,TGI,[46],> 100 µM
same,TGI,[48],39.6 µM
same,TGI,[49],39.3 µM
same,TGI,[51],47.5 µM
same,TGI,[52],> 100 µM
same,TGI,[53],> 100 µM
same,TGI,[54],> 100 µM
same,TGI,[55],> 100 µM
CC1(C)N=C(N)N=C(N)N1c1ccc(CCc2ccccc2)c(Cl)c1,GI50,[1],0.179 µM
same,TGI,[1],14.6 µM
same,GI50,[2],0.788 µM
same,TGI,[2],15 µM
same,GI50,[3],0.0452 µM
same,TGI,[3],14 µM
same,GI50,[4],1.97 µM
same,TGI,[4],> 100 µM
same,GI50,[56],1.11 µM
same,TGI,[56],12.5 µM
same,GI50,[5],3.99 µM
same,TGI,[5],> 48.8 µM
same,GI50,[6],0.0597 µM
same,TGI,[6],15.3 µM
same,GI50,[7],0.0694 µM
same,TGI,[7],6.83 µM
same,GI50,[8],0.0911 µM
same,TGI,[8],15.8 µM
same,GI50,[10],0.361 µM
same,TGI,[10],13.3 µM
same,GI50,[11],0.0347 µM
same,TGI,[11],14 µM
same,GI50,[12],2.55 µM
same,TGI,[12],> 100 µM
same,GI50,[13],0.0473 µM
same,TGI,[13],2.72 µM
same,GI50,[14],0.268 µM
same,TGI,[14],12.4 µM
same,GI50,[15],1.14 µM
same,TGI,[15],9.51 µM
same,GI50,[16],3.7 µM
same,TGI,[16],27.2 µM
same,GI50,[17],0.0531 µM
same,TGI,[17],12.7 µM
same,GI50,[18],0.0668 µM
same,TGI,[18],15.7 µM
same,GI50,[19],0.0323 µM
same,TGI,[19],14.6 µM
same,GI50,[20],0.0994 µM
same,TGI,[20],7.61 µM
same,GI50,[21],0.0426 µM
same,TGI,[21],13.5 µM
same,GI50,[22],0.124 µM
same,TGI,[22],13.7 µM
same,GI50,[23],0.728 µM
same,TGI,[23],19 µM
same,GI50,[24],0.058 µM
same,TGI,[24],13 µM
same,GI50,[57],1.09 µM
same,TGI,[57],19.9 µM
same,GI50,[25],0.0528 µM
same,TGI,[25],15.7 µM
same,GI50,[27],0.0648 µM
same,TGI,[27],13.5 µM
same,GI50,[58],0.521 µM
same,TGI,[58],17.1 µM
same,GI50,[28],0.0791 µM
same,TGI,[28],15 µM
same,GI50,[29],0.042 µM
same,TGI,[29],11.6 µM
same,GI50,[30],0.236 µM
same,TGI,[30],12.7 µM
same,GI50,[31],37 µM
same,TGI,[31],> 100 µM
same,GI50,[32],0.281 µM
same,TGI,[32],12.4 µM
same,GI50,[33],0.52 µM
same,TGI,[33],13.1 µM
same,GI50,[34],0.19 µM
same,TGI,[34],19.7 µM
same,GI50,[35],0.0897 µM
same,TGI,[35],13.6 µM
same,GI50,[36],0.0916 µM
same,TGI,[36],12.1 µM
same,GI50,[37],0.336 µM
same,TGI,[37],14 µM
same,GI50,[38],0.829 µM
same,TGI,[38],17.6 µM
same,GI50,[39],0.0552 µM
same,TGI,[39],14.3 µM
same,GI50,[40],0.0529 µM
same,TGI,[40],11.3 µM
same,GI50,[41],0.131 µM
same,TGI,[41],12.4 µM
same,GI50,[42],1.01 µM
same,TGI,[42],17.5 µM
same,GI50,[43],0.391 µM
same,TGI,[43],15.9 µM
same,GI50,[44],0.124 µM
same,TGI,[44],1.33 µM
same,GI50,[45],1.04 µM
same,TGI,[45],18.4 µM
same,GI50,[59],0.0883 µM
same,TGI,[59],13 µM
same,GI50,[46],0.172 µM
same,TGI,[46],15.4 µM
same,GI50,[47],0.517 µM
same,TGI,[47],12.7 µM
same,GI50,[48],0.0562 µM
same,TGI,[48],18.7 µM
same,GI50,[49],0.0388 µM
same,TGI,[49],13.8 µM
same,GI50,[50],0.698 µM
same,TGI,[50],13 µM
same,GI50,[51],1.96 µM
same,TGI,[51],18.3 µM
same,GI50,[52],0.0427 µM
same,TGI,[52],13 µM
same,GI50,[53],0.392 µM
same,TGI,[53],13.1 µM
same,GI50,[54],0.0572 µM
same,TGI,[54],11.7 µM
same,GI50,[55],8.12 µM
same,TGI,[55],> 100 µM
